{"source": "patent US8889662B2", "about": "“Method to alter sex ratios in avian offspring” (University of Georgia Research Foundation, Inc., priority 2009, dated 2014)", "key": {"[1]": {"test_system": "zebra finch (Taeniopygia guttata)", "test": "Example 1: offspring sex after a single maternal CORT injection at sex chromosome segregation, zebra finches", "assay_type": "in vivo", "settings": "20 ug CORT about 19 h after first egg, third egg of sequence, control injected 46%", "experimental": "(§1) This experiment was conducted to determine whether a single injection of CORT at the critical time of sex chromosome segregation is sufficient to skew offspring sex ratios towards females. Female zebra finches were monitored for signs of nest-building and egg-laying. Approximately 19 h following the appearance of the first egg (1 h before sex chromosome segregation), females received one of two treatments: (1) a high dose of CORT (20 ug in 50 ul peanut oil), or (2) a control treatment (50 ul peanut oil). Because oviposition and ovulation are nearly concurrent, ovulation of the second egg took place when the first egg was laid. Thus, the egg that would be affected by our treatment was the third egg in the sequence. Eggs were labeled as they were laid and were collected after 6 d of incubation for molecular sexing analysis as described above. The percentage of females producing male offspring in each group were calculated and compared using chi square analyses. Blood samples were taken from a subset of females 1 h and 2.5 h post injection to verify that the CORT injection did, in fact, elevate circulating maternal CORT concentrations. CORT was quantified using a standard radioimmunoassay and CORT concentrations were log transformed and analyzed using an analysis of variance (ANOVA)."}, "[2]": {"test": "Example 1: plasma CORT radioimmunoassay after injection, zebra finches", "assay_type": "in vivo, zebra finch (Taeniopygia guttata)", "settings": "female zebra finches", "experimental": "as §1"}, "[3]": {"test_system": "Hyline W-36 and Brown layer hens", "test": "Example 3: ovulation and oviposition rates after injection, laying hens", "assay_type": "in vivo, chicken", "settings": "1.5 mg subcutaneously", "experimental": "Injection treatments were administered to hens subcutaneously in the back of the neck five hours prior to the predicted time of ovulation with one of the following treatments: 0.5 ml of control peanut oil (CONT) or 1.5 mg corticosterone dissolved in 0.5 ml of peanut oil (CORT). Ovulated follicles took 24 h to pass through the remainder of the reproductive tract and were collected at oviposition (FIG. 6). Eggs were also collected on the day prior to injections and were considered the unmanipulated group (UN). […] Eggs were incubated for 10 days at 37.5° C. and 58% relative humidity in a Natureform incubator."}, "[4]": {"test": "Testosterone concentrations after a pharmacological dose of CORT (Examples 1 and 2)", "assay_type": "in vivo, zebra finches", "settings": "within 1-3 hours of administration"}, "laying hens": {"test_system": "laying hens", "test": "Preliminary studies with silastic CORT implants: CORT concentrations and laying patterns", "assay_type": "in vivo, chicken", "experimental": "Additionally, concentrations of CORT and three other hormonal factors known to interact with CORT and ovarian follicular development—testosterone, progesterone, and leptin—will be measured in blood samples taken 4 h after ovulation as well as 4 and 6 h prior to ovulation in females from both treatment groups on days 3, 6, and 12 (to correspond with ovulation of collected eggs above). CORT concentrations will be measured in the yolk of each collected egg as well. […] Additionally, laying patterns were monitored for 2 weeks following implantation and 100% of birds implanted with CORT implants continued to lay at a similar frequency compared to before implantation, illustrating that we will be able to collect eggs from birds following this chronic implant treatment."}, "[5]": {"settings": "chickens, previous work; cited from earlier work"}}, "data": [{"smiles": "C[C@]12C[C@H](O)[C@H]3[C@@H](CCC4=CC(=O)CC[C@@]43C)[C@@H]1CC[C@@H]2C(=O)CO", "note": "[corticosterone]", "values": [{"measurement": "eggs that were male (primary sex ratio)", "setting": "[1]", "value": 71, "unit": "%"}, {"measurement": "circulating CORT concentrations compared to controls", "setting": "[2]; 20 ug CORT in 50 ul peanut oil, within 1 h of injection, p<0.0001", "value": "significantly increased circulating CORT concentrations"}, {"measurement": "circulating CORT concentrations compared to controls", "setting": "[2]; 20 ug CORT, 2.5 h post-injection, p=0.08", "value": "remained higher in the CORT treated females 2.5 h post-injection, but not significantly so"}, {"measurement": "effect on ovulation or oviposition rates", "setting": "[3]", "value": "Neither the control nor the corticosterone treatment had an effect on ovulation or oviposition rates"}, {"measurement": "testosterone concentrations after CORT", "setting": "[4]", "value": "testosterone concentrations increased significantly"}, {"measurement": "implanted birds that continued to lay at a similar frequency", "setting": "laying hens; silastic CORT implants, laying monitored for 2 weeks after implantation", "value": 100, "unit": "%"}, {"measurement": "CORT concentrations after silastic CORT implants", "setting": "laying hens; within 2 d of implantation, persisted 1 week after implantation", "value": "significantly elevated CORT concentrations"}, {"measurement": "duration of elevated CORT concentrations following injection", "setting": "[5]", "value": "approximately 90 minutes"}]}]}
